Assay results: PMC10229426, “An optimized bioluminescent substrate for non-invasive imaging in the brain” (Nature Chemical Biology, 2023)
Where “and” joins values, the source holds several entries; their conditions need not be identical. Equal entries are not always repeated. Entries after “also recorded” stand apart in the source; their conditions may differ.

How the values were obtained:
[1] = probably due to acidity of the solution; cited from earlier work
[2] = test system: AkaLuc; assay: Bioluminescence imaging of transgenic mice expressing AkaLuc in the brain; assay type: in vivo, mouse; settings: 3.0- or 1.3-µmol doses
From the text: (§1) Transgenic reporter mice with LSL-CAG-luciferase (Antares, FLuc or AkaLuc) inserted at the H11 locus (H11P) were generated by φC31-mediated recombination in blastocysts[48] by the Stanford Transgenic, Knockout and Tumor Model Center. For substrate comparisons, 2- to 4-month-old transgenic mice doubly hemizygous for a Camk2a-cre (Jackson Laboratory, 005359), Vgat-IRES-cre (Jackson Laboratory), Vglut2-IRES-cre (Jackson Laboratory, 016963) or Alb-cre (Jackson Laboratory, 003574) driver and a CAG-LSL-Antares, CAG-LSL-AkaLuc or CAG-LSL-FLuc reporter were anesthetized by inhalation of isoflurane for 5 min. An electric shaver was used to remove scalp hair in Camk2a-cre, Vglut2-IRES-cre or Vgat-IRES-cre mice or abdominal hair in Alb-cre mice. Nair depilatory cream (Church and Dwight) was then applied to the shaved area for 1 min, and remaining hair was removed with a piece of sterile gauze. […]
(§2) For mice expressing Antares, indicated amounts of Fz were dissolved in 480 µl of a PEG-300-based formulation consisting of 10% glycerol, 10% ethanol, 10% hydroxypropylcyclodextrin and 35% PEG-300 in water, or indicated amounts of lyophilized Fz analogs with P-407 vehicle were reconstituted in 150–500 µl of DPBS buffer. […] Integrated luminescence was quantified using the Fiji version of the ImageJ program (NIH)[49], with further statistical analysis performed in GraphPad Prism (version 9.0.0).

[3] = biological target: T1, Antares luciferase (Oplophorus gracilirostris, UniProt Q9GV45, A31E/A60N/A81I/F95D/I117V/K70R/L54V/L99Q/M102K/N193R/P142E/Q151K/Q38R/Q45L/V71I/Y165I); assay: Bioluminescence imaging of transgenic mice for substrate comparison (brain, Cre-driven Antares); assay type: in vivo, mouse
T1 construct: expressed in transfected cells; host or cells: transgenic mice with CAG-LSL-Antares at the H11 locus, crossed to Cre driver lines (neurons or liver)
T1 sequence (Q9GV45 other isoform, or with tags, fused parts or gaps with the stated changes): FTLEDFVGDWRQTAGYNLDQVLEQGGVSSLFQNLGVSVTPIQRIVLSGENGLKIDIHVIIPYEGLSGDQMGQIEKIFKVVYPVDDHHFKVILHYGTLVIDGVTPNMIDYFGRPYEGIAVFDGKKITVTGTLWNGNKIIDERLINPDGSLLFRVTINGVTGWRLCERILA
From the text: Transgenic reporter mice with LSL-CAG-luciferase (Antares, FLuc or AkaLuc) inserted at the H11 locus (H11P) were generated by φC31-mediated recombination in blastocysts[48] by the Stanford Transgenic, Knockout and Tumor Model Center. For substrate comparisons, 2- to 4-month-old transgenic mice doubly hemizygous for a Camk2a-cre (Jackson Laboratory, 005359), Vgat-IRES-cre (Jackson Laboratory), Vglut2-IRES-cre (Jackson Laboratory, 016963) or Alb-cre (Jackson Laboratory, 003574) driver and a CAG-LSL-Antares, CAG-LSL-AkaLuc or CAG-LSL-FLuc reporter were anesthetized by inhalation of isoflurane for 5 min. An electric shaver was used to remove scalp hair in Camk2a-cre, Vglut2-IRES-cre or Vgat-IRES-cre mice or abdominal hair in Alb-cre mice. Nair depilatory cream (Church and Dwight) was then applied to the shaved area for 1 min, and remaining hair was removed with a piece of sterile gauze. The area was then rinsed with DPBS and cleaned with 70% ethanol with a piece of sterile gauze.
For mice expressing Antares, indicated amounts of Fz were dissolved in 480 µl of a PEG-300-based formulation consisting of 10% glycerol, 10% ethanol, 10% hydroxypropylcyclodextrin and 35% PEG-300 in water, or indicated amounts of lyophilized Fz analogs with P-407 vehicle were reconstituted in 150–500 µl of DPBS buffer. For mice expressing FLuc, indicated amounts of D-luciferin were dissolved in PBS. For mice expressing AkaLuc, 3 μmol (1.0 mg) of AkaLumine-HCl (Sigma-Aldrich) was dissolved in 150 μl of 0.9% NaCl. Substrates were then injected into the peritoneal cavity in the left lower quadrant, with the maximum injectable volume at 480 µl. Immediately after substrate injection, bioluminescent images were acquired in an Ami HT bioluminescence imaging system running Aura software version 3.1 or 4.0 (Spectral Instruments Imaging) for 15–30 min at intervals of 1 min. For comparing substrates at 1.3 µmol, the following imager settings were used: emission filter open, field of view of 25 cm, f-stop of 1.2, binning of 2 × 2 and exposure time of 2 s. For comparison with >1.3-µmol substrates, the following settings were used: emission filter open, field of view of 25 cm, f-stop of 1.2, binning of 1 × 1 and exposure time of 1 s. Pseudocolor images and intensity scale bars were generated with Aura software. Integrated luminescence was quantified using the Fiji version of the ImageJ program (NIH)[49], with further statistical analysis performed in GraphPad Prism (version 9.0.0).

[4] = biological target: T1, Antares luciferase; assay: Non-invasive detection of Antares in the liver (Alb-cre driver); assay type: in vivo, mouse; settings: 1.3 µmol i.p.
From the text: as §1, §2

[5] = Solubility in aqueous formulation with poloxamer-407 (P-407); assay type: physicochemical
Experimental: Stock samples of solid formulated Fz analogs were prepared using the following protocol. First, P-407 (Pluronic F127) was placed into a screw-cap glass vial. The polymer was then heated to 75 °C in a water bath until melted. Fz analogs dissolved in ethanol were added to the hot polymer, mixing well with a thin spatula. Additional rinses of Fz analogs in ethanol were added to the hot polymer for quantitative transfer. The solvent was then removed under vacuum. This concentrated sample was diluted with water to make a dispensing mixture of 4–9 mM Fz analogs in water. Next, this aqueous stock was aliquoted into glass vials, frozen and lyophilized overnight to give a yellow cake. For i.p. injection into mice, DPBS (Corning, 21-031-CV) was added to the vial and rocked to create a clear solution.

[6] = Toxicity in mice: necropsy and histopathology; assay type: in vivo, C57BL/6 mice; parameters: key to BMH, brain multifocal hemorrhage score / HN, hepatocellular necrosis score / RTD, renal tubular dilation score / RTDR, renal tubular degeneration and regeneration score: 0: absent; 1: minimal; 2: mild; 3: moderate; 4: severe; key to HMNH, heart myocardial necrosis and hemorrhage score: 0: no lesions; 1: <5% of myocardium affected; 2: 5-10% affected; 3: 10-25% affected; 4: >25% affected; key to LC, Liver capsule score: 0: normal; 1: segmental subcapsular necrosis +/- neutrophilic infiltrate; Total organ score: scale not given here
Experimental: (§3) Male C57BL/6 mice of 2 months of age were killed by CO2 asphyxiation and cardiac exsanguination. All mice were weighed, and a complete gross examination of the external and internal organs was performed. […] Formalin-fixed tissues were processed routinely, embedded in paraffin, sectioned at 5 μm and stained with hematoxylin and eosin. All slides were blindly evaluated for histologic treatment-related effects (Supplementary Table 1) by a board-certified veterinary pathologist.

[7] = Toxicity in mice: necropsy and histopathology; assay type: in vivo, C57BL/6 mice; parameters: key: 0: absent; 1: minimal; 2: mild; 3: moderate; 4: severe; settings: 1 day, 4.2 µmol, 20 mg P-407; individual mice
Experimental: as §3

[8] = i.p., CAG-LSL-Antares x Vgat-IRES-cre mice
[9] = 1 day, 4.2 µmol, 20 mg P-407, individual mice

SMILES: CN(C)c1ccc(/C=C/C=C/C2=N[C@@H](C(=O)O)CS2)cc1 [AkaLumine]
- toxicity of administered solution [1]: noticeable toxicity of the Akalumine solution to the skin and heart
- duration of brain signal relative to Antares–CFz [2]: more sustained signal

SMILES: Nc1cccc(-c2cn3c(=O)c(Cc4ccco4)nc-3c(Cc3ccccc3F)[nH]2)c1F [FFz, fluorofurimazine, reference compound]
- brain signal distribution ([3]; Antares driven by Camk2a-cre): signal predominantly from the hindbrain
- brain signal distribution [3, 8]: low brightness from the forebrain, higher signal from the hindbrain, and highest signal from regions in the head outside the brain
- liver signal, 6 versus FFz [4]: brighter in the liver

SMILES: O=c1c(Cc2ccco2)nc2c(Cc3ccccc3)[nH]c(-c3cccc(O)c3)cn1-2 [HFz, hydrofurimazine, reference compound]
- brain signal brightness relative to Fz [3, 8]: more than tenfold dimmer
- brain signal distribution [3, 8]: signal from the brain similar to Fz

SMILES: Cc1ccc(Cc2nc3c(Cc4ccccc4)[nH]c(-c4cccc(F)c4F)cn-3c2=O)o1 [compound 10]
- relative solubility in aqueous formulation with P-407 [5]: reduced solubility
- solubilization of 4.2 µmol in P-407 formulation ([5]; 4.2 µmol): incomplete solubilization

SMILES: Cc1ccc(Cc2nc3c(Cc4ccccc4F)[nH]c(-c4cccc(F)c4F)cn-3c2=O)o1 [compound 13]
- brain brightness relative to 6 ([3]; 1.3 µmol i.p. with 10 mg P-407): brighter
- brain brightness relative to 6 (factor) ([3]; 1.3 µmol i.p. with 10 mg P-407, Vglut2-IRES-cre or CaMKIIα-cre): 1.5–2.0
- toxicity after a single i.p. injection ([6]; 4.2 µmol with 20 mg P-407, one injection): severe kidney pathology and weight loss; also recorded: more toxic than 6
- BMH, brain multifocal hemorrhage score [6, 9]: 0
- HMNH, heart myocardial necrosis and hemorrhage score [6, 9]: 0
- HN, hepatocellular necrosis score [6, 9]: 0
- LC, Liver capsule score [6, 9]: 0
- RTD, renal tubular dilation score [6, 9]: 2 (5%–25% of tubules affected) (2×) and 3 (25%–50% of tubules affected)
- RTDR, renal tubular degeneration and regeneration score [6, 9]: 3 (25%–50% of tubules affected) (2×) and 2 (5%–25% of tubules affected)
- SRPHMV, splenic red pulp histiocytosis with microvesicular vacuolation score [6, 9]: 0
- Total organ score [6, 9]: 5 and 4 and 6
- ∆ weight [6, 9]: –7.9%; also recorded: –7.2%; also recorded: –6.7%
- HPMC, heart perivascular myxomatous change score [7]: 0
- HT, heart telangiectasia score [7]: 0
- KCHMV, Kupffer cell hyperplasia and microvesicular vacuolation score [7]: 0
